Measured values as given in patent publication US5656630A, “Method of combating fungus” (American Cyanamid Company, priority 1993, dated 1997).
Values after ≈ are worked out from the molar mass of the structure shown. Like-named read-outs stand apart in the source and are kept apart here.

How the values were obtained:
Phytophthora infestans [1] = assay type: in vivo, Phytophthora infestans (on tomato plants cv Prof. Rudloff); conditions: soil drench 2 days before infection, tomato
tomato plants = conditions: in vivo
Water solubility = assay type: physicochemical
Phytophthora infestans [2] = conditions: sunlight excluded; only the Z-isomer; reported in Brighton Crop Protection Conference, 1988, 17-24; cited from earlier work
[3] = 6.25 ppm active ingredient (0.11 kg/ha)
[4] = 12.5 ppm active ingredient (0.2 kg/ha)
[5] = 25 ppm active ingredient (0.44 kg/ha)
[6] = 50 ppm active ingredient (0.88 kg/ha)
[7] = 100 ppm active ingredient (1.76 kg/ha)

| SMILES | Activity in % (ABBOTT formula, diseased leaf area) (Phytophthora infestans [1]; [3]) | Activity in % (ABBOTT formula, diseased leaf area) (Phytophthora infestans [1]; [4]) | Activity in % (ABBOTT formula, diseased leaf area) (Phytophthora infestans [1]; [5]) | Activity in % (ABBOTT formula, diseased leaf area) (Phytophthora infestans [1]; [6]) | Activity in % (ABBOTT formula, diseased leaf area) (Phytophthora infestans [1]; [7]) | initial concentrations in the leaves, Z-isomer relative to E-isomer (tomato plants) | solubility (Water solubility) | fungitoxicity in vitro (Phytophthora infestans [2]) |
| --- | --- | --- | --- | --- | --- | --- | --- | --- |
| COc1ccc(/C(=C\C(=O)N2CCOCC2)c2ccc(Cl)cc2)cc1OC [Z-isomer, Z-isomer of 4-[3-(4-chlorophenyl)-3-(3,4-dimethoxyphenyl)acryloyl]morpholine] | 100% | 100% | 100% | 100% | 100% | about 5 times higher | 7 µg/mL (≈ 18 µM) | fungitoxic |
| COc1ccc(C(=CC(=O)N2CCOCC2)c2ccc(Cl)cc2)cc1OC [E/Z 50:50, 4-[3-(4-chlorophenyl)-3-(3,4-dimethoxyphenyl)-acryloyl]morpholine] | 91% | 98% | 100% | 100% | 100% |  |  |  |
| COc1ccc(/C(=C/C(=O)N2CCOCC2)c2ccc(Cl)cc2)cc1OC [E-isomer] | 16% | 47% | 71% | 94% | 97% |  | 30 µg/mL (≈ 77.3 µM) |  |
